Legend:
[1] = system: Chinese hamster ovary (CHO) cells; assay: Method 7: Micronucleus Assay; format: cell-based; settings: in vitro, with and without S9
Procedure: Method 7: Micronucleus Assay
An in vitro micronucleus assay can be used to determine the mutagenic potential of a test compound. This assay detects chromosome abnormalities resulting from exposure to a test compound by measuring the formation of small membrane-bound DNA fragments such as micronuclei in the cytoplasm of interphase cells.
The assay is conducted using Chinese hamster ovary (CHO) cells under different test conditions in the absence and presence of metabolic activation. Concordance in outcomes between this screening assay and in vitro cytogenetics is around 85%. Direct (−S9) testing is conducted using 24 hour or 3 hour continuous treatments, whereas testing with metabolic activation (+S9) involves a 3 hour treatment. Clastogenicity is indicated by an increase in numbers of micronucleated cells in the first interphase after exposure (in cytokinesis-blocked binucleated cells). The results are compared to the level of cytotoxicity (measured by the proportion of binucleated cells) a test compound produces. […] A test compound displaying a negative response has not fulfilled specific evaluation criteria for the assay which may include one or both of the following: 1) a reproducible concentration dependent increase in the specific assay endpoint when compared to a negative (vehicle) control and/or 2) one or more test concentrations achieving a minimum fold increase in the specific endpoint over controls. • Positive—A positive result identifies a genotoxic hazard defined by the assays specific endpoint (ex. positive in vitro micronucleus). A test compound displaying a positive response has fulfilled specific evaluation criteria for the assay which may include one or both of the following: 1) a reproducible concentration dependent increase in the specific assay endpoint when compared to a negative (vehicle) control and/or 2) one or more test concentrations achieving a minimum fold increase in the specific endpoint over controls. • Equivocal—An equivocal result is reserved for situations where the test compound has been evaluated in a valid assay test or tests (i.e. assay acceptability criteria satisfactory), but fails to display a negative or positive result as defined by established evaluation criteria. This may convey the presence of a weak positive response that requires additional repeat testing or eventual confirmatory testing case-by-case. • Inconclusive—An inconclusive result is reserved for situations where the test compound has been evaluated in an invalid assay test (i.e. assay acceptability criteria unsatisfactory for technical reasons, ex. negative or positive controls fail to respond appropriately). Repeat testing is recommended in order to establish a valid assay test result.

[2] = Method 11: Single Dose Pharmacokinetics and Oral Bioavailability in Male Sprague-Dawley Rat; format: in vivo; settings: mean
Procedure: Repeat testing is recommended in order to establish a valid assay test result. P. Pharmacokinetic/Pharmacodynamic Study Method 11: Single Dose Pharmacokinetics and Oral Bioavailability in Male Sprague-Dawley Rat Following Intravenous and Oral Administration
An in vivo model can be used to evaluate the single dose pharmacokinetic properties and absolute oral bioavailability of a test compound. As described more specifically below, a test compound is administered to Sprague-Dawley (SD) rats either intravenously or orally in a crossover study design and the resulting pharmacokinetic properties and oral bioavailability are measured.
Male rats are administered a 2.0 mg/kg dose orally (n=2) by gavage as a suspension (0.5% methylcellulose/0.1% Tween 80 in distilled water). After a 72 hour wash-out periond, the same rats were administered 2.0 mg/kg dose bolus intravenously (n=2) as a solution (70% PEG 400/20% 0.05 M Citrate Buffer pH 3/10% Ethanol). Serial blood samples (for plasma) are collected from each rat over a 24 hour post dose for each route. […] Pharmacokinetic parameters of a test compound are determined from the plasma concentration-time data using non-compartmental methods. • LC/MS/MS: 1) Column: Hyperso; AQUASIL C-18 2.1×20 mm, 3.0 μm; 2) Mobile phase: Aqueous Water with 0.1% Formic Acid, Orgainic: Acetonitrile; Ionization: +ESI (API 4000). MRM: m/z 494.4→m/z 394.0 (Example 261 in WO2004096810), m/z 509.44→m/z 409.80 (Example 263 in WO2004096810), m/z 495.33→m/z 395.20 (Example 262 in WO2004096810). The detection limits are 0.12 ng/mL (Example 261 in WO2004096810), 1.3 ng/mL (Example 263 in WO2004096810) and 0.11 ng/mL (Example 262 in WO2004096810).
Watson (Version 6.4.0.04) is used to calculate mean test compound concentrations, corresponding standard deviations (SD), and percent coefficient of variation (% CV), and to estimate pharmacokinetic parameters (derived by noncompartmental methods) and associated statistics (mean, SD & CV %) if applicable. (Since n=2, no SD or CV calculated ?). Concentrations below the limit of quantitation (BLQ) are reported as zero (0) and are used in the evaluation of mean concentrations and the estimation of AUC. The peak plasma concentration (Cmax) and the time to reach peak concentration (tmax) are recorded directly from individual plasma concentration-time profiles. The terminal log-linear phase of the plasma concentration-time curve is identified by linear regression of data points. The terminal half-life (t1/2) is calculated as ln(2) divided by absolute value of the slope of the terminal log-linear phase. The area under the plasma concentration-time curve from time zero to time of the last quantifiable concentration (t) [AUC(0-t)] is determined using the linear trapezoidal method. The area under the plasma concentration-time curve from time zero to infinity [AUC(0-∞)] is determined as AUC(0-t) plus the extrapolated area. The extrapolated area is determined by dividing the last observed plasma concentration by the slope of the terminal log-linear phase. Systemic plasma clearance (CL) is calculated as dose/AUC(0-∞) while the volume of distribution at steady state (Vdss) is calculated as CL×MRT, where MRT (mean residence time) is defined as AUMC(0-∞)/AUC(0-∞). The absolute PO bioavailability (F) is calculated as a ratio of the dose-normalized AUC(0-∞) of individual animal after PO administration to the dose-normalized AUC(0-∞) of individual animal after IV administration given the crossover study design.

[3] = system: spontaneously hypertensive rats (SHR); assay: Method 12: SHR Rat Combination Therapy, blood pressure by telemetry; format: in vivo; settings: 1 mg/kg once daily oral
urinary cGMP = assay: Method 12: SHR Rat Combination Therapy, urinary cGMP mechanistic biomarker; format: in vivo; settings: 0-24 hour urine collection on day 9

SMILES: CCOCCn1nc(CC)c2nc(N3CCC(C(=O)O)CC3)nc(Nc3cc(C)ccn3)c21 [Carboxypiperidine Compound, 1-(1-(2-ethoxyethyl)-3-ethyl-7-(4-methylpyridin-2-ylamino)-1H-pyrazolo[4,3-d]pyrimidin-5-yl)piperidine-4-carboxylic acid]
- METHOD 7: MI[…] [1]: equivocal
- AUC(0-inf) ([2]; plasma, iv, 2 mg/kg): 17500 ng·h/mL
- Vd ([2]; plasma, iv, 2 mg/kg, read-out: Vdss): 0.715 L/kg
- AUC(0-inf) ([2]; plasma, po, 2 mg/kg): 9070 ± 2300 ng·h/mL
- Cmax ([2]; plasma, po, 2 mg/kg): 1360 ± 216 ng/mL
- Tmax ([2]; plasma, po, 2 mg/kg): 30 ± 12 min
- F ([2]; po 2 mg/kg vs iv 2 mg/kg): 51.8 ± 13.1%
- reduction of blood pressure from pre-dose baseline in comparison to vehicle treated group ([3]; day 1): 11±1 mmHg
- reduction of blood pressure below pre-dose baseline ([3]; day 7): 9±1 mmHg
- urinary cGMP in comparison to vehicle treated group (urinary cGMP): elevated

Source: patent publication US8518956B2, “1-(1-(2-ethoxyethyl)-3-ethyl-7-(4-methylpyridin-2-ylamino)-1H-pyrazolo[4,3-d]pyrimidin-5-yl) piperidine-4-carboxylic acid and salts thereof” (priority 2005, dated 2013)
